Measured values from article PMC10739865, “The Mycobacterium tuberculosis methyltransferase Rv2067c manipulates host epigenetic programming to promote its own survival” (Nature Communications, 2023).

Columns and labels:
[1] = molecular target: T1, Rv2067c (Mycobacterium tuberculosis, UniProt P9WLL9)
[2] = molecular target: T1, Rv2067c; remark: listed apart in the source

T1 sequence (P9WLL9 whole entry): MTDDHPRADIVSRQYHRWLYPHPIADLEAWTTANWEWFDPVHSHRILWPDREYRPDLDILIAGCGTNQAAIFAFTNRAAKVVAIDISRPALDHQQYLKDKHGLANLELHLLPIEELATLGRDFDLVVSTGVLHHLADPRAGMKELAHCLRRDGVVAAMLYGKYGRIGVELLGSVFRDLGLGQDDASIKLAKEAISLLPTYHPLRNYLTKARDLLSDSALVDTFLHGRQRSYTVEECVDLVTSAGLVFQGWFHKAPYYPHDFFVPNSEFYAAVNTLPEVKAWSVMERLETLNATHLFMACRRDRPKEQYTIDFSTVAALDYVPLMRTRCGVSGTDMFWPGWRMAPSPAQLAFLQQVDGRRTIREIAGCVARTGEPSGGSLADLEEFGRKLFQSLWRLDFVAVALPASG

| Compound | radiometric methyltransferase assay (scintillation counting, autoradiography) [1] | X-ray crystallography, 2.40 Å [2] |
| --- | --- | --- |
| C[S+](CC[C@H](N)C(=O)O)C[C@H]1O[C@@H](n2cnc3c(N)ncnc32)[C@H](O)[C@@H]1O (stereo partly drawn) [S-Adenosyl-L-methionine] | Rv2067c as MTase, and tritiated SAM as a methyl donor, methylation of histones was detected | – |
| Nc1ncnc2c1ncn2[C@@H]1O[C@H](CSCC[C@H](N)C(=O)O)[C@@H](O)[C@H]1O [S-adenosyl-L-homocysteine] | – | The coordinates for Rv2067c-SAH structure have been deposited in the Protein Data Bank |
